ChEMBL document CHEMBL1136315, “Identification of a novel class of inhibitor of human and Escherichia coli thymidine phosphorylase by in silico screening” (Bioorg Med Chem Lett, 2003)

Assays:
[1] = biological target: T1, Thymidine phosphorylase (Homo sapiens) (UniProt P19971); assay: Inhibitory activity (134 uM) against Escherichia coli thymidine phosphorylase
T1 sequence (whole entry): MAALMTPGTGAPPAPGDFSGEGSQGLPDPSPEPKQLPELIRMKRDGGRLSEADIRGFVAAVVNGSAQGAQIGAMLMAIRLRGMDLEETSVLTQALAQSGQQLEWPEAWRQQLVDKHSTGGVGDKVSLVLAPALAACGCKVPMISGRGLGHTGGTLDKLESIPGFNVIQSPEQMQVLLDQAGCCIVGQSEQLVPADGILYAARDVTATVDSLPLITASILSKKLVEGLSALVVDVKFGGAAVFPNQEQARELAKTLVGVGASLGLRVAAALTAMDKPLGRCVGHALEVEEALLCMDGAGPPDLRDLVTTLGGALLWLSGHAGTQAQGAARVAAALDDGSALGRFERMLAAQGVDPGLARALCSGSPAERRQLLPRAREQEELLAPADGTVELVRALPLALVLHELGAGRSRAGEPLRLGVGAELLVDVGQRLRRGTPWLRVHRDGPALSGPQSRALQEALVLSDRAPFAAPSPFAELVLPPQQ

[2] = biological target: Thymidine phosphorylase (Escherichia coli) (UniProt P07650); assay: Inhibitory activity (105 uM) against Escherichia coli thymidine phosphorylase
Thymidine phosphorylase (Escherichia coli), sequence (P07650 whole entry, looked up): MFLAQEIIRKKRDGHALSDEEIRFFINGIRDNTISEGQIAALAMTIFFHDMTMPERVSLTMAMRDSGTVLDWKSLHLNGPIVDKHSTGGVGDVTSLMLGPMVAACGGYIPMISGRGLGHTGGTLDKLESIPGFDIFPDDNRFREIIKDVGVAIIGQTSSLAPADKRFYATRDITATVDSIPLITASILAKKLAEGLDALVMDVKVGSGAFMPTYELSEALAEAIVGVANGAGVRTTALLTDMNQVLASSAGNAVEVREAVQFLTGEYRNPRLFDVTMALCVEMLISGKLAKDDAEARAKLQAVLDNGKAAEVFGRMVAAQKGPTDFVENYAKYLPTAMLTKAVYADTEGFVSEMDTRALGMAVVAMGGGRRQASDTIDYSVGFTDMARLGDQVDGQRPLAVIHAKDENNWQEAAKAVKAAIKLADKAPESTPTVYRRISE

C=CCN/C(S)=N/C=C1C(=O)NC(=O)NC1=O
inhibition [1]: 60%

CCCCC1(/C=N/N=C(/N)S)NC(=O)NC1=O (configuration not stated)
inhibition [2]: 23%
